From patent publication US20110162981A1, “METHODS AND COMPOSITIONS FOR PREVENTING, REDUCTING OR TREATING DAMAGE CAUSED BY ISCHEMIA AND SCHEMIA-LIKE CONDITIONS” (priority 2008, published 2011)

System: ischemia-induced brain lesion (middle cerebral artery occlusion)
Experiment: MCAO/reperfusion stroke model, TTC staining lesion volume
Assay type: in vivo, Sprague Dawley rats
Settings: ovariectomized female SD rats, 1 hr MCAO

## C[C@]12CC[C@@H]3c4ccc(O)cc4CC[C@H]3[C@@H]1CC[C@@H]2O [17 β-Estradiol, 17-beta estradiol]
24 hours after onset of reperfusion, TTC staining, mean
  Ischemic Lesion Volume (means, mm^3): 147.4 mm^3
24 hours reperfusion, vs control diet rats
  reduction of ischemia-induced brain lesion compared with control rats: 48%
